# Reference: patent US20050202511A1, “AMP-activated protein kinase (AMPK) inhibitor screening assay” (priority 2002, published 2005)
# “And” between values parts separate entries of the source, which are not always exact repeats. Equal entries are not always repeated. Where two headings read alike, the source gives them in different places.
# Columns and labels:
# IMPDH2 CBS1-2 (R224P) = molecular target: T1, IMPDH2 CBS1-2 (R224P) (Homo sapiens, UniProt P12268, R224P); test: Filter binding assay, isolated CBS domain pair; conditions: single-site model
# T1 construct: DNAs encoding residues 112-232 or the full-length protein (1-514) were amplified; His tag (pHAT20 vector); made in house; host or cells: E. coli
# From the text: To examine whether binding of adenine nucleotides is a general function for CBS domains, or is specific to the γ subunits of AMPK, IMP dehydrogenase (IMPDH) was also studied. Retinitis pigmentosa can be caused by an R224P mutation in the second CBS domain of the IMPDH1 isoform (27). However, the IMPDH2 isoform is 84% identical in amino acid sequence with IMPDH1, and the arginine mutated in retinitis pigmentosa is conserved. Because the IMPDH2 isoform is ubiquitously expressed and a suitable cDNA to use as a template for PCR was more readily available, DNA encoding the single pair of CBS domains from human IMPDH2 was cloned, an R224P mutation was created and expressed both the wild type and the mutant as His-tagged proteins in E. coli.
# (§1) For IMPDH2, DNAs encoding residues 112-232 or the full-length protein (1-514) were amplified using human liver cDNA (Clontech) as template, and cloned into pHAT20 (Clontech) using 5′-AgeI and 3′-KpnI sites added to the primers. For the other constructs, DNAs encoding residues 582-840 of CLC2, or 416-551 of cystathionine â-synthase, were amplified using human liver cDNA as template, and cloned into pGEX-KG as above using 5′-BamHI and 3′-XhoI sites added to the primers. All mutations were created using the Stratagene QuikChange Site-directed Mutagenesis system.
# (§2) The IMPDH2 constructs were His-tagged and were purified on chelating-Sepharose (Pharmacia) charged with 50 mM CoCl2 according to manufacturer's instructions.
# Various concentrations of [^14C]-AMP, [γ^32P] […] Reactions were stopped by spotting 10 ìl onto a Millipore MF Filter Membrane disc and rapidly washing under high vacuum with 1 ml of ice-cold TBS. Radioactivity was determined on the filters by scintillation counting. Non-specific binding (which was trivial) was determined by performing the assay with GST as a control, and was subtracted. […] Data were fitted to the binding models given in the text, using GraphPad Prism 3. […]
# IMPDH2 Tetramer (R224P) = molecular target: T2, IMPDH2 Tetramer (R224P) (Homo sapiens, UniProt P12268, R224P); test: Filter binding assay, full-length protein
# T2 construct: the full-length protein (1-514); His tag (pHAT20 vector); made in house; host or cells: E. coli
# From the text: as §1, §2
# (§3) Various concentrations of [^14C]-AMP, [γ^32P] […] Reactions were stopped by spotting 10 ìl onto a Millipore MF Filter Membrane disc and rapidly washing under high vacuum with 1 ml of ice-cold TBS. Radioactivity was determined on the filters by scintillation counting. Non-specific binding (which was trivial) was determined by performing the assay with GST as a control, and was subtracted. […] Data were fitted to the binding models given in the text, using GraphPad Prism 3. Estimates of parameters resulting from fits are quoted in the text and Table 1±standard error, and the curves shown in figures are theoretical curves obtained using those estimates.
# IMPDH2 Tetramer (WT) = molecular target: T3, IMPDH2 Tetramer (WT) (Homo sapiens, UniProt P12268); test: Filter binding assay, full-length protein; conditions: for Kd: read-out: B0.5
# T3 construct: the full-length protein (1-514); His tag (pHAT20 vector); made in house; host or cells: E. coli
# From the text: as §1, §2, §3
# [1] = molecular target: T4, full-length IMPDH2 (R224P) (Homo sapiens, UniProt P12268, R224P); test: Enzymatic assay of IMPDH2; format: biochemical; conditions: highest concentration used 2 mM
# T4 construct: DNAs encoding residues 112-232 or the full-length protein (1-514) were amplified using human liver cDNA; His tag (vector pHAT20); made in house; host or cells: E. coli
# Description: (§4) IMPDH2 was assayed by following the increase in absorbance at 340 nm due to formation of NADH in a BMG Fluostar Optima plate reader at 30° C. in plate mode. The assay buffer contained 50 mM Tris/HCl, 100 mM KCl, 1 mM DTT, 3 mM EDTA, and 5 mM MgCl. […] The total volume was 200 μl and the reaction started by addition of IMP (or NAD^+ where [IMP] was the variable).
# [2] = molecular target: T5, full-length IMPDH2 (wild type) (Homo sapiens, UniProt P12268); test: Enzymatic assay of IMPDH2; format: biochemical
# T5 construct: DNAs encoding residues 112-232 or the full-length protein (1-514) were amplified using human liver cDNA; His tag (vector pHAT20); made in house; host or cells: E. coli
# Description: as §4
# CLC2 CBS1-2 (WT) = molecular target: T6, CLC2 CBS1-2 (WT) (Homo sapiens, UniProt P51788); test: Filter binding assay, GST-CBS domain fusion; conditions: single-site model
# T6 construct: DNAs encoding residues 582-840 of CLC2; made in house; host or cells: E. coli BL21 (DE3)
# Description: DNA encoding the CBS domain pair from the chloride channel CLC2 was also cloned and expressed.
# (§8) ATP or [^35S]SAM were incubated with GST-CBS domain fusions (1 ìM for WT, up to 20 μM for some mutants) for 10 min at 25° C. in a 20 il total volume in TBS. Reactions were stopped by spotting 10 ìl onto a Millipore MF Filter Membrane disc and rapidly washing under high vacuum with 1 ml of ice-cold TBS. Radioactivity was determined on the filters by scintillation counting. Non-specific binding (which was trivial) was determined by performing the assay with GST as a control, and was subtracted. […] Data were fitted to the binding models given in the text, using GraphPad Prism 3.
# [3] = molecular target: T7, IMPDH2 CBS domain pair (wild type) (Homo sapiens, UniProt P12268); test: Displacement of bound ATP; format: binding
# T7 construct: For IMPDH2, DNAs encoding residues 112-232 or the full-length protein (1-514) were amplified; His tag (vector pHAT20); made in house; host or cells: E. coli
# Description: as §8
# [4] = molecular target: T8, recombinant á1â1γ2 heterotrimer (H383R) (Homo sapiens, UniProt Q9UGJ0, H383R); test: AMPK heterotrimer kinase assay, activation by AMP; format: biochemical; conditions: slow lysis; estimate somewhat less accurate; read-out: A0.5
# T8 construct: expressed in transfected cells; host or cells: CCL13 cells
# From the text: (§5) Plasmids expressing myc-tagged á1, â1 and γ1, γ2 (with or without WPWS mutations) or γ3 were expressed in CCL13 cells and the recombinant complexes immunoprecipitated using anti-myc antibodies.
# (§6) For this reason, the estimates of A0.5 for the H383R and T400N mutants are somewhat less accurate than the others, while no value could be obtained for the R531 G mutant. […] With some mutants, the maximal activation also appeared to be affected.
# (§7) PCDNA plasmids (14,25,32) encoding á1, â1 and γ1, γ2 or γ3 were expressed in CCL13 cells (25), subject to “rapid lysis”, immunoprecipitated using anti-myc antibody, and assayed as described previously (33). “Slow lysis” of CCL13 cells was as described by Stein et al (34).
# [5] = molecular target: T9, recombinant á1â1γ2 heterotrimer (R531G) (Homo sapiens, UniProt Q9UGJ0, R531G); test: AMPK heterotrimer kinase assay, activation by AMP; format: biochemical
# T9 construct: expressed in transfected cells; host or cells: CCL13 cells
# From the text: as §5, §6, §7
# [6] = molecular target: T10, recombinant á1â1γ2 heterotrimer (T400N) (Homo sapiens, UniProt Q9UGJ0, T400N); test: AMPK heterotrimer kinase assay, activation by AMP; format: biochemical; conditions: slow lysis; estimate somewhat less accurate; read-out: A0.5
# T10 construct: expressed in transfected cells; host or cells: CCL13 cells
# From the text: as §5, §6, §7
# [7] = molecular target: T11, recombinant á1â1γ1 heterotrimer (Rattus norvegicus, UniProt P80385); test: AMPK heterotrimer kinase assay, activation by AMP; format: biochemical
# T11 construct: expressed in transfected cells; host or cells: CCL13 cells
# From the text: as §5, §7
# [8] = molecular target: T12, recombinant á1â1γ3 heterotrimer (Homo sapiens, UniProt Q9UGI9); test: AMPK heterotrimer kinase assay, activation by AMP; format: biochemical
# T12 construct: expressed in transfected cells; host or cells: CCL13 cells
# From the text: as §5, §7
# rat liver AMPK = conditions: read-out: half-maximal effect (A0.5), cited from earlier work
# T11 sequence (P80385 whole entry): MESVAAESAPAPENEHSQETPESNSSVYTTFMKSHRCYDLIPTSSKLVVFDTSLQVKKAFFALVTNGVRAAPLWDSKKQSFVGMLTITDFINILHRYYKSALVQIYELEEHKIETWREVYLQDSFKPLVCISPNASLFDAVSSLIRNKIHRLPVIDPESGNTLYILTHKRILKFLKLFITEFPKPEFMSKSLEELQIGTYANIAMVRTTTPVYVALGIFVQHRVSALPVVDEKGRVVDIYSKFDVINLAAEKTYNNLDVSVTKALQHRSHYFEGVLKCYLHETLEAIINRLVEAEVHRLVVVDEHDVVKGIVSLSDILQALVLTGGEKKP
# T11 sequence (P54645 whole entry partner): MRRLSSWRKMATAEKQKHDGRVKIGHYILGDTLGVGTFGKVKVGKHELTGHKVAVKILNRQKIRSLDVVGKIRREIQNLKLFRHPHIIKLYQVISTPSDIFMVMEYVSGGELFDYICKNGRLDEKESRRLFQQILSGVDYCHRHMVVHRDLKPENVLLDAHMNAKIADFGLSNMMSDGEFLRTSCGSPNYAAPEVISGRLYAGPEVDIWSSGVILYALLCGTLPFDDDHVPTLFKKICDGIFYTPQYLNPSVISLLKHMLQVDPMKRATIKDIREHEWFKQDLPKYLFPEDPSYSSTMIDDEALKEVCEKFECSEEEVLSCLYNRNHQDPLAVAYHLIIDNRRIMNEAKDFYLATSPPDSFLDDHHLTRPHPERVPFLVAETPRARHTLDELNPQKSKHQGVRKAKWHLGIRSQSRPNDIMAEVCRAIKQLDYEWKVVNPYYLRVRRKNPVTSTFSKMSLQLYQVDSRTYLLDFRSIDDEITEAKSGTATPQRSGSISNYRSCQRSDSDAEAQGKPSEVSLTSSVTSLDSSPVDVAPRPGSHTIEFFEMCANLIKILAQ
# T11 sequence (P80386 whole entry partner): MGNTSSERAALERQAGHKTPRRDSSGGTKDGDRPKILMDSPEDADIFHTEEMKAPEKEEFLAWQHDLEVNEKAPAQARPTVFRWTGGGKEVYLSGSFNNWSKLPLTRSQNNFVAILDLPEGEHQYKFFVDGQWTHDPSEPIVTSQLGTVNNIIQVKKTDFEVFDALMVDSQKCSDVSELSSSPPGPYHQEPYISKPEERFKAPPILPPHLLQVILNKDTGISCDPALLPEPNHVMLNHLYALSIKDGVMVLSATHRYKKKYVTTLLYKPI
# T9 sequence (Q9UGJ0 whole entry R531G): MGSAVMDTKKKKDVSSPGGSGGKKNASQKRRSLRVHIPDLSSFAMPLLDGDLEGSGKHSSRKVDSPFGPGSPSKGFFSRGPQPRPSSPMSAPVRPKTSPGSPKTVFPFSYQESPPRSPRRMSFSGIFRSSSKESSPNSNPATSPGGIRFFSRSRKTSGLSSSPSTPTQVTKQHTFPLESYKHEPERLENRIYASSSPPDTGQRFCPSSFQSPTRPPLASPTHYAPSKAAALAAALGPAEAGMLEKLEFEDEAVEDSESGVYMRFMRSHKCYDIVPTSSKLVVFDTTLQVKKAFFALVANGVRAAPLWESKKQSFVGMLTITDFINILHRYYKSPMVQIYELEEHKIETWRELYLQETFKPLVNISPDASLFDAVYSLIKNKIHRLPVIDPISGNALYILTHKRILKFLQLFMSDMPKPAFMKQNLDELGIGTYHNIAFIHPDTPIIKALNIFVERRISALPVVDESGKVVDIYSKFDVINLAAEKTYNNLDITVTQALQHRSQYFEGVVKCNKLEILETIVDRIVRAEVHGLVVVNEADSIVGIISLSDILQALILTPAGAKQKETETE
# T9 sequence (P54645 whole entry partner): as the sequence (P54645 whole entry partner) above
# T9 sequence (P80386 whole entry partner): as the sequence (P80386 whole entry partner) above
# T12 sequence (Q9UGI9 whole entry): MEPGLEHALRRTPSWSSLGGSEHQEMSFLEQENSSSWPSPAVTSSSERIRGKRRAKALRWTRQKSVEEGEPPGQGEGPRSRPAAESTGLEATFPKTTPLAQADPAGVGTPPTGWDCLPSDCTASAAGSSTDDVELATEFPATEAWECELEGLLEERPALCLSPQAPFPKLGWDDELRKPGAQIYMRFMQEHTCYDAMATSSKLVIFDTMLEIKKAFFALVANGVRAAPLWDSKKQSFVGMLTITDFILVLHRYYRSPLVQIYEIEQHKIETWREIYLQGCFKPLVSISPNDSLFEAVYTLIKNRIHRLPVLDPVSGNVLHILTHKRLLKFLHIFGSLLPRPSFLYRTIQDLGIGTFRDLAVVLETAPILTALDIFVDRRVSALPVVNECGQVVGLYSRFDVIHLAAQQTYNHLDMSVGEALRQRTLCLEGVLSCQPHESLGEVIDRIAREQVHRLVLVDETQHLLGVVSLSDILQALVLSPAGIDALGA
# T12 sequence (P54645 whole entry partner): as the sequence (P54645 whole entry partner) above
# T12 sequence (P80386 2-270 partner limits assumed): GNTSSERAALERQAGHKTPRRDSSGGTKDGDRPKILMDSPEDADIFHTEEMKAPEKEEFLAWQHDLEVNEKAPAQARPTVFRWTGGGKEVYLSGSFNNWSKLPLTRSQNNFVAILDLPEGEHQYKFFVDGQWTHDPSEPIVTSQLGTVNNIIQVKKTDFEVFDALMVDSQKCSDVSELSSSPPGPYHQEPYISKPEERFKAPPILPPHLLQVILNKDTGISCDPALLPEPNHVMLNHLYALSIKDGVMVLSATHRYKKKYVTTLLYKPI
# T10 sequence (Q9UGJ0 whole entry T400N): as the sequence (Q9UGJ0 whole entry R531G) above, with T400N, G531R counted along it
# T10 sequence (P54645 whole entry partner): as the sequence (P54645 whole entry partner) above
# T10 sequence (P80386 whole entry partner): as the sequence (P80386 whole entry partner) above
# T8 sequence (Q9UGJ0 whole entry H383R): as the sequence (Q9UGJ0 whole entry R531G) above, with H383R, G531R counted along it
# T8 sequence (P54645 whole entry partner): as the sequence (P54645 whole entry partner) above
# T8 sequence (P80386 whole entry partner): as the sequence (P80386 whole entry partner) above
# T6 sequence (P51788 582-840): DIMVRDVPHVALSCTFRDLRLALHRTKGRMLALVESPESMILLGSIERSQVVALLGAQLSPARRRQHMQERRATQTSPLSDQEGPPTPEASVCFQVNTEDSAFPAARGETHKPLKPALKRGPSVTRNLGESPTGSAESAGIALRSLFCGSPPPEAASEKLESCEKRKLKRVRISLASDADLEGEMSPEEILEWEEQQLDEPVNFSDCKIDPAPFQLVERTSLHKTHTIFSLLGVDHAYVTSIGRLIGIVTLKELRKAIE
structure (smiles),measurement,setting,value
Nc1ncnc2c1ncn2[C@@H]1O[C@H](COP(=O)(O)OP(=O)(O)OP(=O)(O)O)[C@@H](O)[C@H]1O [ATP],Kd,IMPDH2 CBS1-2 (R224P),450 ± 36 µM
same,h (Hill coefficient),IMPDH2 Tetramer (R224P),0.9 ± 0.1
same,Kd,"IMPDH2 Tetramer (R224P); Hill equation, 4 sites, read-out: B0.5",64000 ± 5000 µM
same,h (Hill coefficient),IMPDH2 Tetramer (WT),1.7 and 1.7 ± 0.2
same,Kd,"IMPDH2 Tetramer (WT); Hill equation, 4 sites",770 µM
same,Kd,IMPDH2 Tetramer (WT),760 µM
same,effect on activity,[1],no effect
same,Hill coefficient of activation,[2],1.3±0.1
same,stimulation of IMPDH activity (Vmax),[2],> 4 fold
same,EC50,"[2]; read-out: A0.5 for ATP activation, as printed in discussion",440 µM
same,EC50,[2]; read-out: half-maximal effect,440 ± 50 µM
"Nc1ncnc2c1ncn2[C@@H]1O[C@H](COP(=O)(O)O)[C@@H](O)[C@H]1O [AMP, adenosine monophosphate]",Kd,CLC2 CBS1-2 (WT),1060 ± 80 µM
same,Kd,[3],440 µM
same,EC50,[4],51 ± 40 µM
same,effect of adding AMP on activity,[5],inhibited
same,EC50,[5]; read-out: A0.5,> 100 µM
same,EC50,[6],95 ± 32 µM
same,stimulation by AMP,[7],3.3 fold
same,EC50,"[7]; immunoprecipitated from CCL13 cells, slow lysis, read-out: A0.5",13 ± 2 µM
same,stimulation by AMP,[8],1.5 fold
same,EC50,"[8]; approximate only, read-out: A0.5",2 ± 2 µM
same,EC50,rat liver AMPK; assays in 200 μM ATP,4.4 µM
same,EC50,rat liver AMPK; at 4 mM ATP,29 µM
